Our source for the IC50 and melting point values is patent US6784167B2, “17-beta-hydroxysteroid dehydrogenase-II inhibitors” (Bayer Pharmaceuticals Corporation, priority 2000, dated 2004).

As usually defined, the IC50 is the midpoint of a concentration-inhibition curve. As a reminder, the melting point is the temperature of the solid-liquid transition.

One series addresses T1, 17-Beta HSD II Enzyme (Homo sapiens, UniProt P37059).
T1 construct: made in house; host or cells: insect cells (baculovirus)
T1 sequence (P37059 1-387): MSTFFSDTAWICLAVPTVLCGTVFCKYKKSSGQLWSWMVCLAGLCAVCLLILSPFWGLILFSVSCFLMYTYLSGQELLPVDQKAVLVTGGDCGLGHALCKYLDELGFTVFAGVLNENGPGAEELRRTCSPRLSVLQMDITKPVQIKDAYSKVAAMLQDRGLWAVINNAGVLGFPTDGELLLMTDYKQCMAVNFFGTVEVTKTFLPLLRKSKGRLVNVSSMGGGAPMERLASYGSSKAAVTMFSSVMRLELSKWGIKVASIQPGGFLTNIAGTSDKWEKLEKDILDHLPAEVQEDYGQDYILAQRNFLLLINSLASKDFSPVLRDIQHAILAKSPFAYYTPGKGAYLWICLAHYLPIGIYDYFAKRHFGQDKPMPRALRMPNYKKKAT
Kind of series: Primary assay: inhibition of 17-Beta HSD II enzyme (estradiol/NAD, PMS:MTS colorimetric readout at 490 nm). The conditions noted are these: Table 7, baculovirus-expressed recombinant HSD II, estradiol substrate. It is filed as biochemical. As for the experimental part: HSD II protein purification: The method for purification of baculovirus-expressed HSD II was standardized as follows. The insect cell pellet containing recombinant HSD II was lysed in 2.5 volumes of lysis buffer (40 mM Tris, pH 7.5, 1 mM EDTA, 2 mM DTT, 10 uM NAD) containing 500 uM AEBSF, 10 ug/ml aprotinin, 1 uM pepstatin A, and 100 uM leupeptin. The pellet was nutated for 30 min in this buffer. Subsequently, the pellet was homogenized with 15 strokes using a glass and teflon potter. The volume was doubled with a 2× sucrose/NaCl solution (500 mM sucrose, 300 mM NaCl in lysis buffer). After centrifugation at 10,000×g for 30 min, the supernatant was decanted and stored at −20° C. The pellet was resuspended in 2.5 volumes of lysis buffer containing 250 mM sucrose and 150 mM NaCl. Homogenization was repeated (15 strokes) and the suspension was centrifuged again and the decanted supernatant was stored at −20° C. The pellet was resuspended with 2 times the original pellet volume in lysis buffer containing 150 mM NaCl and 1% Triton X-100. The suspension was nutated for 20 min and then homogenized with 5 strokes. Subsequently, the suspension was centrifuged at 30,000×g for 1 h and supernatant was decanted and poured into a chromatographic column. Sephadex G-25 (fine) was added in small amounts, allowing approximately 15 min after each addition for complete swelling. Sephadex addition was continued until all liquid was absorbed. The protein was eluted with 1 void volume of lysis buffer and eluate monitored at 280 nm optical density. The chromatographic procedure was repeated and an equal volume of glycerol was added to the final eluate.
Primary assay: After titration, the HSD II prep, generated with the standard protocol, was diluted to the appropriate concentration (generally 1/15 dilution). 55 μl of assay buffer (50 mM Hepes, pH 8.0) was added to all wells of a 96 well plate. 5 μl of 5% DMSO were added to wells A1-C1, A2-C2, F1-H1, and F2-H2. A 10 μl aliquot of a 10 mM solution in DMSO of each compound was diluted in 190 μl of assay buffer. The plate with these compound dilutions was then mixed for 15 min on a shaker and a 5 μl aliquot from each well was added to the […]. This was followed by 10 μl of HSD II enzyme ( 1/15 dilution)/estradiol mix in assay buffer containing 1% Triton X-100. The estradiol […] from a 20 mM estradiol DMSO stock solution, which was diluted 1/20 (50 μl/ml) in 50 mM Hepes buffer containing 1% Triton X-100. All wells, except F1-H1 and F2-H2, also received 10 μl of 25 mg/ml NAD (SIGMA) in 100 mM Hepes, pH 9. The blank wells F1-H1 and F2-H2 received 10 μl of NAD buffer. 20 μl of PMS:MTS solution (100 μl PMS into 1800 μl MTS, Promega) was added to all wells. The plate was covered with aluminum foil and incubated at room temperature for 1.5 h. The plate was analyzed at 490 nm on a Hewlett Pachard 8453 spectrophotometer and results were calculated.

[1] abbreviates: read-out: IC50 values ≧2 μM and <10 μM.

Each structure is given as a SMILES string. Where two headings read alike, the source gives them in different places.

As for `CC(=O)Nc1cccc(-c2ccc([C@@H](O)[C@H]3[C@@H](c4ccccc4)CC(=O)N3C)o2)c1` (racemic) [Example 121], the melting point was 193 °C. The IC50 on 17-Beta HSD II Enzyme (setting [1]) is 2000 to 10000 nM.

Regarding `CN1C(=O)CC(c2ccccc2)C1C(O)c1ccc(Cl)c(Cl)c1` (stereo not shown) [Example 99], the melting point was 193 to 195 °C. For the same molecule, on 17-Beta HSD II Enzyme, the half-inhibitory concentration (IC50) is less than 500 nM.

In turn, `CN(C)c1ccc(-c2ccc([C@@H](O)[C@H]3[C@@H](c4ccccc4)CC(=O)N3C)s2)cc1F` (racemic) [Example 28] came in with a melting point of 173 °C. Also, on 17-Beta HSD II Enzyme (setting [1]), the concentration for half-maximal inhibition (IC50) was in the range of 2000 to 10000 nM.

As for `CN1C(=O)CC(c2ccccc2)C1C(O)c1ccc(-c2ccc(C(=O)O)cc2)s1` (stereo not shown) [Example 68], the melting point was 232 °C (dec.). Moreover, the half-inhibitory concentration (IC50) on 17-Beta HSD II Enzyme was less than 500 nM.

`CN1C(=O)C[C@H](c2ccccc2)[C@@H]1[C@H](O)c1ccc(-c2ccccc2C(F)(F)F)s1` (racemic) [Example 34]: the melting point amounted to 192 °C. For the same molecule, the concentration for half-maximal inhibition (IC50) on 17-Beta HSD II Enzyme is less than 500 nM.

`CN1C(=O)C[C@H](c2ccccc2)[C@@H]1[C@H](OCCCc1ccccc1)c1cccs1` [Example 141] returned a melting point of 76 to 78 °C. Besides, at 17-Beta HSD II Enzyme (setting [1]), the half-maximal inhibitory concentration (IC50) fell in the range of 2000 to 10000 nM.

In turn, `CN1C(=O)CC(c2ccccc2)C1C(O)c1ccc(-c2cccc([N+](=O)[O-])c2)s1` (racemic) [Example 44] returned a melting point of 150 °C. For the same molecule, the IC50 on 17-Beta HSD II Enzyme was less than 500 nM.

Molecule `COc1ccccc1C1CC(=O)N(C)C1C(O)c1ccc(S(=O)(=O)c2ccc(Cl)cc2)s1` (stereo not shown) [Example 92] registered a melting point of 220 °C. Moreover, the IC50 on 17-Beta HSD II Enzyme was less than 500 nM.

`COc1cccc(C2CC(=O)N(C)C2C(O)c2ccc(-c3ccc(F)cc3)s2)c1` (stereo not shown) [Example 87] returned a melting point of 172 °C. Further, the half-maximal inhibitory concentration (IC50) at 17-Beta HSD II Enzyme (setting [1]) is 2000 to 10000 nM.

Molecule `COc1ccccc1[C@H]1CC(=O)N(C)[C@H]1[C@H](O)c1ccc(S(=O)(=O)c2ccccc2)s1` (racemic) [Example 91] yielded a melting point of 160 °C. Also, the IC50 on 17-Beta HSD II Enzyme was less than 500 nM.

The molecule `CN(C)c1cccc(-c2ccc(C(O)C3C(c4ccccc4)CC(=O)N3C)s2)c1` (stereo not shown) [Example 74] showed a melting point of 193 °C. Also, at 17-Beta HSD II Enzyme, the IC50 was less than 500 nM.

`CN1C(=O)CC(c2ccccc2)C1C(O)c1ccc(S(=O)(=O)c2ccccc2)s1` (stereo not shown) [Example 70] came in with a melting point of 247 °C. The IC50 on 17-Beta HSD II Enzyme is less than 500 nM.

`CN1C(=O)C[C@H](c2ccccc2)[C@@H]1[C@H](O)c1ccc(S(=O)(=O)N2CCSCC2)s1` (racemic) [Example 35] came in with a melting point of 197 to 199 °C. Also, the IC50 at 17-Beta HSD II Enzyme was less than 500 nM.

`CO[C@H](c1cccs1)[C@H]1[C@@H](c2ccccc2)CC(=O)N1C` (relative stereo) [Example 12, (±)-(4R*,5R*)-5-((1S*)-methoxy-2-thienylmethyl)-1-methyl-4-phenylpyrrolidin-2-one]: the melting point is 101 to 102 °C. The IC50 at 17-Beta HSD II Enzyme (setting [1]) is 2000 to 10000 nM.

`CN1C(=O)CC(c2ccccc2)C1C(O)C#Cc1ccc(F)cc1` (stereo not shown) [Example 124] gave a melting point of 154 to 156 °C. Besides, on 17-Beta HSD II Enzyme, the IC50 was less than 500 nM.

In the case of `CN1C(=O)CC(c2ccccc2)C1C(O)c1ccc(S(=O)(=O)c2ccc(F)cc2)s1` (stereo not shown) [Example 76], the melting point was 192 °C. In addition, the concentration for half-maximal inhibition (IC50) on 17-Beta HSD II Enzyme is less than 500 nM.

In the case of `COc1cccc(-c2ccc(C(O)C3C(c4ccccc4)CC(=O)N3C)s2)c1` (racemic) [Example 31], the melting point came out at 128 °C. Moreover, on 17-Beta HSD II Enzyme, the IC50 was less than 500 nM.

In the case of `CN1C(=O)CC(c2ccccc2)C1C(O)c1ccc(S(=O)(=O)c2ccc(Cl)cc2)s1` (racemic) [Example 62], the melting point is 207 to 208 °C. For the same molecule, at 17-Beta HSD II Enzyme, the IC50 is less than 500 nM.

The molecule `Cc1cc(-c2ccccc2)c([C@@H](O)[C@H]2[C@@H](c3ccccc3)CC(=O)N2C)s1` (racemic) [Example 43] registered a melting point of 85 °C. Besides, the 50% inhibitory concentration (IC50) at 17-Beta HSD II Enzyme is less than 500 nM.

In turn, `COc1ccc(S(=O)(=O)c2ccc([C@@H](O)[C@H]3[C@@H](c4ccccc4)CC(=O)N3C)s2)cc1` (racemic) [Example 58] showed a melting point of 203 to 205 °C. On 17-Beta HSD II Enzyme, the IC50 was less than 500 nM.

Consider `CN1C(=O)C[C@H](c2ccccc2)[C@@H]1[C@H](O)c1ccc(-c2ccccc2F)s1` (racemic) [Example 71], for which the melting point came out at 216 °C. Besides, the 50% inhibitory concentration (IC50) at 17-Beta HSD II Enzyme is less than 500 nM.

Turning to `CCO[C@H](c1cccs1)[C@H]1[C@@H](c2ccccc2)CC(=O)N1C` [Example 139], the melting point is 142 to 144 °C. Further, at 17-Beta HSD II Enzyme (setting [1]), the IC50 lay within 2000 to 10000 nM.

Take `CN1C(=O)CC(c2ccccc2)C1C(O)c1ccc(-c2ccc(C#N)cc2)s1` (stereo not shown) [Example 80]: the melting point came to 146 °C. The IC50 on 17-Beta HSD II Enzyme was less than 500 nM.
